Tested on: HeLa cells
Test: 14C-leucine protein incorporation assay in HeLa cells
Type: cell-based, human
Conditions: 30 min labeling, CHX 10 ug/ml
Method: Since NV-5138 is an amino acid, we performed two different experiments to rule out any potential liabilities that could arise from the incorporation of NV-5138 into proteins. We first determined whether NV-5138 substitutes for any branched-chain amino acid or methionine into newly synthesized proteins using liquid chromatography followed by tandem mass spectroscopy (LC-MS/MS). NV-5138 (100 µM) or vehicle was incubated with serum and leucine-starved 293T cells for 6 hours followed by proteomic analysis by mass spectrometry.
After incubation, cells were harvested and lysed in Tris/HCl 10 mM pH 7.4 plus 1% NP40. Lysate were mixed with water and 20% trichloroacetic acid (1:1:2) and incubated on ice for 2 h to precipitate the protein. Proteins were collected by centrifugation, solubilized in NaOH, placed in scintillation fluid and read on a Wallac Microbeta Trilux 2450 with a 2-min count. Scintillation values were normalized as the percentage of the counts from the DMSO-treated wells.

Q: `C[C@@H]1C[C@@H]([C@H](O)CC2CC(=O)NC(=O)C2)C(=O)[C@@H](C)C1` [cyclohexamide, reference compound] was tested. Which “effect on incorporation of 14C-leucine into precipitated proteins” value did it give?
A: blocked incorporation
